Values after ≈ are worked out from the molar mass of the structure shown.
What was measured:
Type in all cases: functional
[1] = Minimal inhibitory concentration against Enterococcus faecalis 29212
[2] = tested on: Escherichia coli; assay: Minimal inhibitory concentration against Escherichia coli 3190Y
[3] = Minimal inhibitory concentration against Haemophilus influenza HIN003, beta lactamase producing resistant strain; settings: Haemophilus influenzae
[4] = tested on: Klebsiella pneumoniae; assay: Minimal inhibitory concentration against Klebsiella pneumonia 2011E
[5] = Minimal inhibitory concentration against Proteus vulgaris 6059
[6] = tested on: Staphylococcus aureus; assay: Minimal inhibitory concentration against methicillin resistant Staphylococcus aureus 77
[7] = tested on: Streptococcus pneumoniae; assay: Minimal inhibitory concentration against Streptococcus pneumonia PN010, penicillin resistant
[8] = tested on: Staphylococcus aureus; assay: Minimal inhibitory concentration against methicillin susceptible Staphylococcus aureus giorgio
[9] = Minimal inhibitory concentration against Moraxella catarrhalis 25240

Row | Structure (SMILES) | MIC [1] [µg/mL] | MIC [2] [µg/mL] | MIC [3] [µg/mL] | MIC [4] [µg/mL] | MIC [5] [µg/mL] | MIC [6] [µg/mL] | MIC [7] [µg/mL] | MIC [8] [µg/mL] | MIC [9] [µg/mL]
1 | C=CC1=C(C(=O)O)N2C(=O)[C@@H](NC(=O)/C(=N\O)c3csc(N)n3)[C@H]2SC1 [CEFDINIR] | 8 (≈ 20.2 µM) | 0.031 (≈ 0.0784 µM) | 0.5 (≈ 1.26 µM) | 0.13 (≈ 0.329 µM) | 0.031 (≈ 0.0784 µM) | 4 (≈ 10.1 µM) | 4 (≈ 10.1 µM) | 0.063 (≈ 0.159 µM) | 0.5 (≈ 1.26 µM)
2 | Nc1nc(O)cc(SC2=C(C(=O)O)N3C(=O)C(NC(=O)/C(=N\O)c4nc(N)sc4Cl)C3SC2)n1 (configuration not stated) | 8 (≈ 14.7 µM) | 0.063 (≈ 0.116 µM) | 0.016 (≈ 0.0294 µM) | 1 (≈ 1.83 µM) | 0.063 (≈ 0.116 µM) | 2 (≈ 3.67 µM) | 0.5 (≈ 0.917 µM) | 0.25 (≈ 0.459 µM) | 
3 | CO/N=C(\C(=O)NC1C(=O)N2C(C(=O)O)=C(SCSc3cc(N)nc(N)n3)CSC12)c1csc(N)n1 (configuration not stated) | 64 (≈ 112 µM) | 0.063 (≈ 0.111 µM) | 1 (≈ 1.76 µM) | 0.5 (≈ 0.878 µM) | 0.016 (≈ 0.0281 µM) | 4 (≈ 7.02 µM) | 0.13 (≈ 0.228 µM) | 0.25 (≈ 0.439 µM) | 0.5 (≈ 0.878 µM)
4 | Nc1nc(O)cc(SC2=C(C(=O)O)N3C(=O)C(NC(=O)/C(=N\O)c4csc(N)n4)C3SC2)n1 (configuration not stated) | 4 (≈ 7.83 µM) | 0.5 (≈ 0.979 µM) | 1 (≈ 1.96 µM) | 8 (≈ 15.7 µM) | 0.5 (≈ 0.979 µM) | 4 (≈ 7.83 µM) | 1 (≈ 1.96 µM) | 0.5 (≈ 0.979 µM) | < 0.008
5 | C#CCO/N=C(\C(=O)NC1C(=O)N2C(C(=O)O)=C(Sc3cc(N)nc(N)n3)CSC12)c1csc(N)n1 (configuration not stated) | 32 (≈ 58.4 µM) | 0.13 (≈ 0.237 µM) | 0.031 (≈ 0.0566 µM) | 2 (≈ 3.65 µM) | 0.031 (≈ 0.0566 µM) | 4 (≈ 7.3 µM) | 0.25 (≈ 0.457 µM) | 0.5 (≈ 0.913 µM) | 0.016 (≈ 0.0292 µM)
6 | Nc1cc(SCSC2=C(C(=O)O)N3C(=O)C(NC(=O)/C(=N\O)c4nc(N)sc4Cl)C3SC2)nc(N)n1 (configuration not stated) | 1 (≈ 1.69 µM) | 0.25 (≈ 0.424 µM) | 0.5 (≈ 0.847 µM) | 1 (≈ 1.69 µM) | 0.25 (≈ 0.424 µM) | 1 (≈ 1.69 µM) | 0.25 (≈ 0.424 µM) | 0.13 (≈ 0.22 µM) | 0.13 (≈ 0.22 µM)
7 | Nc1cc(SC2=C(C(=O)O)N3C(=O)C(NC(=O)/C(=N\O)c4nc(N)sc4Cl)C3SC2)nc(N)n1 (configuration not stated) | 2 (≈ 3.68 µM) | 0.25 (≈ 0.46 µM) | 0.5 (≈ 0.919 µM) | 2 (≈ 3.68 µM) | 0.5 (≈ 0.919 µM) | 2 (≈ 3.68 µM) | 1 (≈ 1.84 µM) | 0.25 (≈ 0.46 µM) | < 0.008
8 | Nc1nc(O)cc(SCSC2=C(C(=O)O)N3C(=O)C(NC(=O)/C(=N\O)c4nc(N)sc4Cl)C3SC2)n1 (configuration not stated) | 1 (≈ 1.69 µM) | 0.25 (≈ 0.423 µM) | 0.031 (≈ 0.0524 µM) | 2 (≈ 3.38 µM) | 0.13 (≈ 0.22 µM) | 1 (≈ 1.69 µM) | 0.5 (≈ 0.846 µM) | 0.13 (≈ 0.22 µM) | 0.063 (≈ 0.107 µM)
9 | CCO/N=C(\C(=O)NC1C(=O)N2C(C(=O)O)=C(Sc3cc(N)nc(N)n3)CSC12)c1nsc(N)n1 (configuration not stated) | 64 (≈ 119 µM) | 0.063 (≈ 0.117 µM) | 0.13 (≈ 0.241 µM) | 2 (≈ 3.71 µM) | 0.063 (≈ 0.117 µM) | 4 (≈ 7.43 µM) | 0.25 (≈ 0.464 µM) | 1 (≈ 1.86 µM) | < 0.008
10 | Nc1ccnc(SCSC2=C(C(=O)O)N3C(=O)C(NC(=O)/C(=N\O)c4nc(N)sc4Cl)C3SC2)n1 (configuration not stated) | 2 (≈ 3.48 µM) | 1 (≈ 1.74 µM) | 0.25 (≈ 0.435 µM) | 8 (≈ 13.9 µM) | 0.5 (≈ 0.869 µM) | 2 (≈ 3.48 µM) | 1 (≈ 1.74 µM) | 0.25 (≈ 0.435 µM) | 0.5 (≈ 0.869 µM)
11 | Nc1nc(/C(=N/O)C(=O)NC2C(=O)N3C(C(=O)O)=C(SCSc4nc(O)nc(N)c4N)CSC23)c(Cl)s1 (configuration not stated) | 4 (≈ 6.6 µM) | 0.25 (≈ 0.412 µM) | 0.016 (≈ 0.0264 µM) | 1 (≈ 1.65 µM) | 0.25 (≈ 0.412 µM) | 4 (≈ 6.6 µM) | 2 (≈ 3.3 µM) | 0.5 (≈ 0.825 µM) | 0.13 (≈ 0.214 µM)
12 | CCO/N=C(\C(=O)NC1C(=O)N2C(C(=O)O)=C(Sc3cc(N)nc(N)n3)CSC12)c1csc(N)n1 (configuration not stated) | 64 (≈ 119 µM) | 0.13 (≈ 0.242 µM) | 0.063 (≈ 0.117 µM) | 2 (≈ 3.72 µM) | 0.063 (≈ 0.117 µM) | 4 (≈ 7.44 µM) | 0.5 (≈ 0.93 µM) | 0.5 (≈ 0.93 µM) | < 0.008
13 | Nc1cc(SC2=C(C(=O)O)N3C(=O)C(NC(=O)/C(=N\O)c4csc(N)n4)C3SC2)nc(N)n1 (configuration not stated) | 8 (≈ 15.7 µM) | 0.031 (≈ 0.0608 µM) | 0.13 (≈ 0.255 µM) | 1 (≈ 1.96 µM) | 0.031 (≈ 0.0608 µM) | 2 (≈ 3.92 µM) | 0.5 (≈ 0.981 µM) | 0.25 (≈ 0.491 µM) | < 0.008
14 | CO/N=C(\C(=O)NC1C(=O)N2C(C(=O)O)=C(Sc3cc(N)nc(N)n3)CSC12)c1csc(N)n1 (configuration not stated) | > 64 | 0.031 (≈ 0.0592 µM) | 0.016 (≈ 0.0306 µM) | 0.5 (≈ 0.955 µM) | 0.016 (≈ 0.0306 µM) | 4 (≈ 7.64 µM) | 0.5 (≈ 0.955 µM) | 0.5 (≈ 0.955 µM) | < 0.008
15 | Nc1cc(N)nc(SCSC2=C(C(=O)O)N3C(=O)C(NC(=O)/C(=N\O)c4nc(N)sc4Cl)C3SC2)n1 (configuration not stated) | 4 (≈ 6.78 µM) | 1 (≈ 1.69 µM) | 0.016 (≈ 0.0271 µM) | 8 (≈ 13.6 µM) | 1 (≈ 1.69 µM) | 4 (≈ 6.78 µM) | 1 (≈ 1.69 µM) | 0.5 (≈ 0.847 µM) | 0.13 (≈ 0.22 µM)
16 | Nc1cc(SCSC2=C(C(=O)O)N3C(=O)C(NC(=O)/C(=N\O)c4csc(N)n4)C3SC2)nc(N)n1 (configuration not stated) | 1 (≈ 1.8 µM) | 0.031 (≈ 0.0558 µM) | 0.5 (≈ 0.9 µM) | 0.5 (≈ 0.9 µM) | 0.031 (≈ 0.0558 µM) | 1 (≈ 1.8 µM) | 0.5 (≈ 0.9 µM) | 0.13 (≈ 0.234 µM) | 2 (≈ 3.6 µM)
17 | Nc1cc(N)nc(SCSC2=C(C(=O)O)N3C(=O)C(NC(=O)/C(=N\O)c4csc(N)n4)C3SC2)n1 (configuration not stated) | 4 (≈ 7.2 µM) | 0.063 (≈ 0.113 µM) | 1 (≈ 1.8 µM) | 0.5 (≈ 0.9 µM) | 0.031 (≈ 0.0558 µM) | 1 (≈ 1.8 µM) | 1 (≈ 1.8 µM) | 0.13 (≈ 0.234 µM) | 1 (≈ 1.8 µM)

From ChEMBL document CHEMBL1132731, “Synthesis and antibacterial activities of novel C(3)-aminopyrimidinyl substituted cephalosporins including against respiratory tract pathogens” (2000)
